These are literature values, as cited in patent US7601427B2, “Curable composition, cured film, antireflection film, polarizing plate and liquid crystal display” (Fujifilm Corporation, priority 2005, dated 2009).

The structures appear in SMILES notation.

As a reminder, the pKa is the pH at which an ionisable group is half protonated.

The conditions of the data set: pKa of conjugate acid, aqueous solution, from Kagaku Binran.

Take `CN(C)CCO` [b-17, N,N′-Dimethyl-2-aminoethanol]: the pKa was 9.5.
